Legend:
Akt = assay: phosphorylation of Akt in PTN-stimulated HUVS cells; format: cell-based, human; conditions: cells preincubated with EGFR inhibitor; PTN 2-20 minutes
Protocol: FIG. 11: FIG. 11 illustrates: human umbilical vein stromal cells not stimulated or stimulated with 50 ng/ml of PTN for 2, 5, 10 or 20 minutes were used to prepare cell lysates that were analyzed in Western blots probed with anti-phospho threonine 308 Akt (panel A), anti-phospho serine 473 Akt (panel B), anti-phospho-serine 9 GSK3β (panel C), anti-phospho-serine 33, 37 and […] β-catenin (panel D) or anti-actin antibodies (panel E). Akt was immunoprecipitated from those lysates using anti-Akt antibodies, incubated with a fusion peptide containing the 20 N-terminal amino acids of GSK3β and analyzed in Western-blots probed using anti-phospho-serine 9 GSK3β antibodies (panel F).
To pursue this pathway of nuclear import of β-catenin, HUVS cells were stimulated with PTN (50 ng/ml), lysed, and analyzed in Western blots probed with anti-phosphothreonine 308 Akt or anti-phosphoserine 473 Akt antibodies (FIG. 11, panel A and B). […]
The association of adaptor proteins that associate with specific phosphorylated sites in activated EGFR are responsible for the activation of phosphatidyl-inositol 3-kinase (PI3K). […] The cells were stimulated with PTN for 2, 5, 10, and 20 minutes, cell lysates were prepared, and the lysates were analyzed in Western blots probed with anti-phospho-Akt (Ser473), anti-phospho-GSKβ (Ser9), and anti-phospho-β-catenin (Thr42) antibodies. […]

MDA-MB-231 cells = assay: growth of MDA-MB-231 breast cancer cells in culture (viable cell count); format: cell-based, human
Protocol: (§1) FIG. 22: FIG. 22 illustrates: in (A), the c-met/ALK dual inhibitor PF2341066 blocks growth of MDA-MB-231 cells. MDA-MB-231 breast cancer cells were treated with 1 nM, 10 nM, 100 nM, and 1 μM PF2341066, the number of viable cells was counted for ten days, and represented as average with standard deviation. In (B), The c-met/ALK dual inhibitor PF2341066 blocks growth of T47D cells. T47D breast cancer cells were treated with 1 nM, 10 nM, 100 nM, and 1 μM PF2341066, the number of viable cells was counted for ten days, and represented as average with standard deviation. In (C), The ALK inhibitor PF2341066 delays MDA-MB-231 cell growth as tumors in flanks of nude mice. MDA-MB-231 cells were injected in flanks of nude mice. The mice were divided in two groups, which were given 50 mg/kg PF2341066 daily by oral gavage or an equal volume of DMSO as control. Tumor size was measured daily and is represented as average tumor burden in each group.
(§2) The MDA-MB-231 (FIG. 22A) and T47D (FIG. 22B) cells were then treated with the ALK inhibitor PF2341066.
(§3) MDA-MB-231, MCF-7, and T47D cells were obtained from American Tissue Collection Center (ATCC) and grown in DMEM supplemented with 10% fetal bovine serum (FBS) and 1% penicillin/streptomycin at 37° C. in a 5% CO2 atmosphere. […]

T47D cells = assay: growth of T47D breast cancer cells in culture (viable cell count); format: cell-based, human
Protocol: as §1, §2, §3

[1] = test system: MDA-MB-231 cell xenograft; assay: MDA-MB-231 xenograft growth in flanks of nude mice; format: in vivo; conditions: 50 mg/kg daily oral gavage
Protocol: as §1, with “group. […]” for “group.”
Male athymic nude mice (8 weeks old, Cby.Cg-Foxn1nu) were used. […] The sites of injection were observed daily for tumor growth beginning 1 day after injection and tumor length (L) and width (W) were measured, and tumor volume was estimate using the formula (LXW2)/2.

β-catenin [2] = assay: tyrosine phosphorylation of β-catenin in PTN-stimulated U87MG cells; format: cell-based, human; conditions: U87MG cells preincubated with inhibitor; 50 ng PTN/ml
Protocol: FIG. 1: FIG. 1 illustrates in (A) PTN stimulation of tyrosine phosphorylation of β-catenin in cells that express RPTPβ/ζ and ALK. COS7 cells transiently expressing ALK and RPTPβ/ζ were stimulated with 10 ng PTN/ml. Cell lysates were prepared and used to immunoprecipitate β-catenin. The immunoprecipitates were analyzed in Western blots probed with anti-phosphotyrosine antibodies. Lane 1, cells transfected with ALK that were not stimulated with PTN. Lane 2, cells transfected with ALK stimulated with PTN. Lane 3, cells transfected with empty vector not stimulated with PTN. Lane 4, cells transfected with empty vector stimulated with PTN. […] The immunoprecipitates were analyzed in Western blots probed with anti-phosphotyrosine antibodies. […] Cell lysates were used to immunoprecipitate β-catenin and the immunoprecipitates were analyzed in Western blots probed with anti-phospho-tyrosine antibodies and reprobed with anti-β-catenin antibodies. […] MCF-7 cells that stably express EGFR/RPTPβ/ζ not transfected with ALK were analyzed as above. […] Lysates of MCF-7 cells and lysates of MCF-7 cells stimulated with EGF were used to immunoprecipitate β-catenin and the immunoprecipitates were analyzed in Western blots probed with anti-phospho-tyrosine antibodies and separately with anti-β-catenin antibodies. […]

β-catenin [3] = assay: ubiquitination of β-catenin in HUVS cells (Rad23 capture); format: cell-based, human; conditions: PTN-stimulated cells pre-incubated with proteasome inhibitor
Protocol: FIG. 12: FIG. 12 illustrates: human umbilical vein stromal cells not stimulated (lane 1) or stimulated with 50 ng/ml of PTN for 15 (lane 2), or 30 minutes (lane 3) were used to prepare cell lysates that were incubated with Rad23-conjugated agarose beads to pull-down ubiquitinated proteins and analyzed in Western-blots probed with anti-β-catenin antibodies (upper panel) and reprobed with anti-ubiquitin antibodies (lower panel). Cells pre-incubated with LY294002 were stimulated with PTN for 15 minutes (lane 4). Cells pre-incubated with lactacystin were stimulated with PTN for 15 minutes (lane 5).
Human umbilical vein stromal cells were lysed in a buffer prepared with 50 mM Tris, pH 7.2, 150 mM NaCl pH 7.5, 1% NP40, 0.25% sodium deoxicholate, Complete EDTA-free Protease Inhibitor Cocktail and 2 mM sodium orthovanadate. […] The beads were washed 4 times with lysis buffer and analyzed using Western blots.
β-catenin is rapidly degraded through the ubiquitin proteasome proteolytic pathway, thereby setting steady state levels of β-catenin by balancing its degradation with new synthesis of this key regulatory protein. […] Proteins captured with Rad23 Sepharose were eluted and analyzed in Western blots probed with anti-β-catenin antibodies (FIG. 12, upper panel) and the blots were reprobed with anti-ubiquitin antibodies (FIG. 12, lower panel). […]

β-catenin [4] = assay: tyrosine phosphorylation of β-catenin in MCF-7-EGFR/RPTPβ/ζ cells expressing ALK; format: cell-based
Protocol: FIG. 1: FIG. 1 illustrates in (A) PTN stimulation of tyrosine phosphorylation of β-catenin in cells that express RPTPβ/ζ and ALK. COS7 cells transiently expressing ALK and RPTPβ/ζ were stimulated with 10 ng PTN/ml. Cell lysates were prepared and used to immunoprecipitate β-catenin. The immunoprecipitates were analyzed in Western blots probed with anti-phosphotyrosine antibodies. Lane 1, cells transfected with ALK that were not stimulated with PTN. Lane 2, cells transfected with ALK stimulated with PTN. Lane 3, cells transfected with empty vector not stimulated with PTN. Lane 4, cells transfected with empty vector stimulated with PTN. In (B), ALK and RPTPβ/ζ, but not Src, are necessary for PTN to stimulate tyrosine phosphorylation of activation of β-catenin. U87MG cells and U87MG cells that had been transfected with an shRNA targeting either RPTPβ/ζ or ALK or preincubated with the src inhibitor PP2 were stimulated with 50 ng PTN/ml or not (control) and cell lysates used to immunoprecipitate β-catenin. The immunoprecipitates were analyzed in Western blots probed with anti-phosphotyrosine antibodies. […] Cell lysates were used to immunoprecipitate β-catenin and the immunoprecipitates were analyzed in Western blots probed with anti-phospho-tyrosine antibodies and reprobed with anti-β-catenin antibodies. […] MCF-7 cells that stably express EGFR/RPTPβ/ζ not transfected with ALK were analyzed as above. […] Lysates of MCF-7 cells and lysates of MCF-7 cells stimulated with EGF were used to immunoprecipitate β-catenin and the immunoprecipitates were analyzed in Western blots probed with anti-phospho-tyrosine antibodies and separately with anti-β-catenin antibodies. Lysates of MCF-7 cells transfected with ALK and stimulated with PTN, EGF or pervanadate were immunoprecipitated with anti-β-catenin antibodies and the immunoprecipitates were analyzed in Western blots probed with anti-phospho-tyrosine antibodies and separately with anti-β-catenin antibodies. […]

ALK = assay: tyrosine phosphorylation of ALK in MCF-7-EGFR/RPTPβ/ζ cells; format: cell-based; conditions: EGF at 1 minute and at 5 minutes

COc1cc2ncnc(Nc3cccc(Cl)c3)c2cc1OC [AG1478, reference compound]
PTN-stimulated activation of Akt (phospho-Akt serine 473) (Akt): effectively prevented

C[C@@H](Oc1cc(-c2cnn(C3CCNCC3)c2)cnc1N)c1c(Cl)ccc(F)c1Cl [PF2341066]
proliferation of MDA-MB-231 cells (MDA-MB-231 cells; 1 nM-1 μM, ten days): dose-dependent block in proliferation | growth of MDA-MB-231 cells (MDA-MB-231 cells; 1 μM): effectively prevented growth | proliferation of T47D cells (T47D cells; 1 nM-1 μM, ten days): dose-dependent block in proliferation | reduction of T47D cell growth (T47D cells; 1 μM): about 13 fold | reduction of tumor burden ([1]; day 22): about 3.5 fold | reduction of tumor burden ([1]; end of the experiment): about 3 fold

CC(C)(C)n1nc(-c2ccc(Cl)cc2)c2c(N)ncnc21 [PP2, reference compound]
inhibition of PTN-stimulated tyrosine phosphorylation of β-catenin (β-catenin [2]): failed to inhibit

CC(=O)N[C@@H](CSC(=O)[C@]1([C@@H](O)C(C)C)NC(=O)[C@H](C)[C@@H]1O)C(=O)O [lactacystin, reference compound]
ubiquitinated β-catenin levels (β-catenin [3]): remained at the level in HUVS cells not stimulated with PTN

epidermal growth factor [EGF]
increase in tyrosine phosphorylation of β-catenin (β-catenin [4]; 1 minute after stimulation with EGF): about 11 fold | tyrosine phosphorylation of β-catenin (β-catenin [4]; 5 minutes after stimulation with EGF): Even higher levels | tyrosine phosphorylation of ALK (ALK): marked increase

sodium pervanadate [reference compound]
increase in tyrosine phosphorylation of β-catenin (β-catenin [4]; stimulated with sodium pervanadate): about 17 fold

From patent US20210009673A1, “METHODS FOR REGULATING BREAST CANCERS” (priority 2018, published 2021)
